What was measured:
[1] = tested on: C2C12 myoblast cells; assay: Cytotoxicity of diflunisal, MTT assay; type: cell-based, mouse; settings: approximately 10,000 nM, 18 hours, vs control
Procedure: C2C12 is a myoblast cell line obtained from the C3H mouse strain, and is widely used to study muscle cell differentiation. The cells were cultured in a cell culture medium (growth medium (GM)), and muscle cell differentiation was induced in a differentiation medium (DM). DMEM containing 15% fetal bovine serum (FBS) was used as the cell culture medium, and DMEM containing 2% horse serum was used as the differentiation medium.
The cytotoxicity of diflunisal (CAS No. 22494-42-4, W06) was evaluated using an MTT assay. C2C12 myoblast cells were treated with diflunisal at concentrations of 0, 1, 10, 100, 1,000, and 10,000 nM for 18 hours, and cell viability was then confirmed using the MTT assay. Myoblast cells (1.0×10^4 cells/96 well) were allowed to react with 5 mg/mL MTT for 4 hours in a cell culture medium, and the eluted reaction product was then measured for absorbance at 570 nm.

[2] = tested on: C2C12 cell lines; assay: Muscle cell differentiation, MHC immunofluorescence staining and myotube diameter; type: cell-based, mouse; settings: 10, 100, 1,000, 10,000 nM, day 3 of differentiation induction
Procedure: (§1) C2C12 is a myoblast cell line obtained from the C3H mouse strain, and is widely used to study muscle cell differentiation. The cells were cultured in a cell culture medium (growth medium (GM)), and muscle cell differentiation was induced in a differentiation medium (DM). DMEM containing 15% fetal bovine serum (FBS) was used as the cell culture medium, and DMEM containing 2% horse serum was used as the differentiation medium. To induce muscle cell differentiation, cells were seeded in a cell culture medium and cultured. When the density of cells reached approximately 80% to 90%, the medium was replaced with a differentiation medium, and differentiation was induced for approximately 2 to 3 days. To analyze the effect of diflunisal on the differentiation of muscle stem cells, MHC immunofluorescence staining was performed (FIG. 2). […] On day 3 of differentiation induction, immunofluorescence staining was performed using an MHC antibody to compare and analyze the degree of myotube formation.

[3] = tested on: C2C12 cell lines; assay: Immunoblotting of differentiation markers MHC and myogenin; type: cell-based, mouse; settings: positive control ursolic acid (UA)
Procedure: as §1, with “formation. […] In addition, the expression levels of differentiation markers were confirmed through immunoblotting.” for “formation.”

[4] = tested on: C2C12 myoblast cells; assay: Myoblast proliferation, BrdU staining; type: cell-based, mouse; settings: 1 μM, approximately 20 hours
Procedure: To analyze the effect of diflunisal on the proliferation of myoblast cells, a BrdU staining experiment was performed. C2C12 myoblast cells were treated with DMSO as a control or diflunisal (1 μM) for approximately 20 hours, and then allowed to react with BrdU for 15 minutes. Thereafter, immunofluorescence staining was performed using an antibody against BrdU (FIG. 5A). As a result, it was confirmed that the proliferation of myoblast cells increased in the group treated with diflunisal.

[5] = tested on: Pax7; assay: Pax7 mRNA expression (qRT-PCR); type: cell-based, mouse; settings: C2C12 cells treated with diflunisal
Text: FIGS. 5A-5B and 6 show the results of confirming the stem cell differentiation-promoting effect through administration of diflunisal. […] In addition, it was confirmed whether the expression level of Pax7, which is a muscle proliferation marker, increased due to diflunisal treatment.

[6] = tested on: C57BL/6 male mice with CTX-induced muscle damage; assay: Stem cell proliferation in cardiotoxin (CTX) muscle damage animal model, BrdU staining of TA muscle; type: in vivo, mouse; settings: oral 0.02 mg/kg for 2 weeks, CTX injection, then 0.02 mg/kg for 3 days
Procedure: C57BL/6 male mice were orally administered diflunisal at a dose of 0.02 mg/kg for 2 weeks, and then on the second week, 10 μM cardiotoxin (CTX) was directly injected into the muscle at 2 μL per g of body weight to induce muscle damage. Thereafter, diflunisal was administered at a dose of 0.02 mg/kg for 3 days. Then, immunofluorescence staining was performed on the TA muscle tissue of the mice using a BrdU antibody. […] Also, a quantitative comparison confirmed that the proportion of BrdU-positive cells increased by more than 2.5 times compared to the control when the cells were treated with diflunisal (FIG. 8).

[7] = tested on: C2C12 myoblast cells; assay: Dexamethasone (DEX)-induced muscle atrophy in C2C12 myotubes; type: cell-based, mouse; settings: 100 μM DEX pretreatment 4 hours, diflunisal 1 μM, 24 hours in DM
Procedure: To determine whether diflunisal could recover or protect muscles from dexamethasone (DEX)-induced muscle atrophy, this experiment was performed using C2C12 myoblast cells. C2C12 myoblast cells were differentiated in a differentiation medium (DM) for 2 days, pretreated with 100 μM DEX for 4 hours, and then treated with diflunisal (1 μM) together with DMSO as a vehicle. Then, the C2C12 myoblast cells were further cultured in DM for 24 hours. Immunofluorescence staining was performed on dexamethasone-treated C2C12 myotube cells using an MHC antibody to compare and analyze the degree of myotube formation. […] Also, when the expression level of atrogin-1, which is a muscle atrophy marker, was confirmed through immunoblotting, it was confirmed that its expression increased when dexamethasone was administered.

[8] = tested on: muscle cells (myotubes) in cancer cell culture medium (CM); assay: Cachexia induced by cancer cell culture medium (CM) in muscle cells; type: cell-based; settings: 10, 100, 1,000 nM
Procedure: To confirm the amelioration effect of diflunisal on cancer cachexia, cancer cachexia was induced in muscle cells using a cancer cell culture medium (CM) (FIG. 11, top). […] Also, the diameter of the myotubes was measured to confirm the improvement.

[9] = tested on: C57BL/6 mice injected with Lewis lung carcinoma; assay: Cancer cachexia animal model (Lewis lung carcinoma injected mice); type: in vivo, mouse
Procedure: Lewis lung carcinoma (LCC, 5×10^6 cells/mice) was injected into C57BL/6 mice to induce lung cancer. Two weeks after injection, diflunisal was orally administered daily for 21 days at a dose of 0.02 or 0.2 mpk (FIG. 13). Thereafter, the changes in body weight, tumor weight, and tumor-free body weight for each mouse were measured. […] To compare the motor ability in the cancer cachexia-induced mouse model, a grip strength test was conducted for each experimental group. […]

[10] = cancer cachexia-induced mice, diflunisal administered

Structure (SMILES): O=C(O)c1cc(-c2ccc(F)cc2F)ccc1O [diflunisal]
- cell viability (MTT assay) [1]: almost similar to that of the control
- diameter of myotubes [2]: increased in a concentration-dependent manner
- muscle cell differentiation (myotube formation, MHC immunofluorescence) ([2]; vs DMSO control): promoted in a concentration-dependent manner
- expression of differentiation marker MHC (immunoblotting) [3]: induced an increase in the expression
- expression of differentiation marker myogenin (immunoblotting) [3]: induced an increase in the expression
- proliferation of myoblast cells (BrdU immunofluorescence staining) ([4]; vs DMSO): increased
- proportion of BrdU-positive cells ([4]; vs DMSO control): significantly increased compared to the control
- relative expression level of Pax7 mRNA [5]: increased
- increase of proportion of BrdU-positive cells compared to the control ([6]; TA muscle): more than 2.5 times
- proliferation of myoblast cells in TA muscle (BrdU staining) [6]: increased
- MHC expression (immunofluorescence) after dexamethasone-induced atrophy [7]: restored
- MuRF1 expression (qRT-PCR) [7]: significantly reduced
- expression level of atrogin-1 (muscle atrophy marker, immunoblotting) [7]: decreased again
- diameter of myotubes in CM-induced cancer cachexia model [8]: increased in a concentration-dependent manner
- tumor-free body weight ([9]; 0.02 mpk oral daily for 21 days, vs cancer-induced group): significantly increased compared to the cancer-induced group
- grip strength (motor ability) ([9]; 0.02 or 0.2 mpk oral daily for 21 days, vs cancer-induced group): increased in a concentration-dependent manner
- muscle mass loss of hindlimb muscles (TA, EDL, SOL, GA) [9, 10]: significantly improved
- reduction in fat and organ weights (white fat, visceral fat, liver, heart, spleen) [9, 10]: improved
- relative mRNA expression level of MuRF-1 [9, 10]: decreased again
- relative mRNA expression level of atrogin-1 [9, 10]: decreased again
- change (decrease) in tumor-free body weight ([9]; oral daily for 21 days, 0.02 or 0.2 mpk): improved
- overall body weight ([9]; oral daily for 21 days, 0.02 or 0.2 mpk, all experimental groups): no significant change

Source: US20260224594A1, “COMPOSITION FOR TREATING CANCER CACHEXIA, COMPRISING DIFLUNISAL OR A PHARMACEUTICALLY ACCEPTABLE SALT THEREOF” (ANIMUSCURE INC., priority 2023, published 2026)
